Data: publication PMC11279404, “Discovery of 1H-benzo[d]imidazole-(halogenated)Benzylidenebenzohydrazide Hybrids as Potential Multi-Kinase Inhibitors” (Pharmaceuticals, 2024)

Experiments:
[1] = system: HCT-116 (human colon cancer cell line); experiment: MTT in vitro cytotoxicity, HCT-116; format: cell-based; conditions: for IC50: Homo sapiens, HCT-116, MTT, mean ± SD of triplicate; for SI (Selectivity Index) HCT-116: IC50 of WI-38 / IC50 of HCT-116
[2] = system: HepG2 (hepatocellular carcinoma cell line); experiment: MTT in vitro cytotoxicity, HepG2; format: cell-based, human; conditions: for IC50: Homo sapiens, HepG2, MTT, mean ± SD of triplicate; for SI (Selectivity Index) HepG2: IC50 of WI-38 / IC50 of HepG2
[3] = MTT in vitro cytotoxicity, normal WI-38; format: cell-based; conditions: human, WI-38 normal lung fibroblast cells, normal cell line, mean ± SD of triplicate
[4] = system: cancer cell lines (HCT-116, HepG2, MCF-7); experiment: MTT in vitro cytotoxicity, summary across the cancer cell line panel; format: cell-based; conditions: Homo sapiens; summary over HCT-116, HepG2, MCF-7; read-out: IC50 values across the tested cancer cell lines
Procedure: The cytotoxic activities of compounds 6a-l were assessed using a standard MTT method, which was performed across three different cancer cell line models, namely human colon cancer (HCT-116), hepatocellular carcinoma (HepG2), mammary gland cancer (MCF-7), and normal (WI-38) cell lines. […] […]. Substitution at the 4-position, as in the case of compounds 6d, 6g, and 6j, also seems beneficial, with fluoro (6j) showing the best results. […]. Overall, the cytotoxicity data provide valuable insights into the structure–activity relationships of the synthesized compounds and can guide further optimization efforts to develop potential anticancer agents with improved potency and selectivity.
. The SI values represent the ratio of the IC50 values for the normal WI-38 cell line compared with the respective cancer cell lines, with higher SI values indicating greater selectivity for the cancer cells over normal cells. […]. The cytotoxic potential of compounds 6a-l was evaluated against a panel of cancer cell lines, including HCT-116, HepG2, and MCF-7, as well as a normal cell line, WI-38, using the reported methodology. The cell lines utilized in this study were obtained from the American Type Culture Collection (ATCC) through the Holding Company for Biological Products and Vaccines (VACSERA) in Cairo, Egypt. These included: 1. A human colon cancer cell line (HCT-116); 2. Hepatocellular carcinoma (HepG2)—a liver cancer cell line; 3. Mammary gland breast cancer (MCF-7); and 4. A human lung fibroblast (WI-38)—a normal cell line.

[5] = system: MCF-7 (mammary gland breast cancer cell line); experiment: MTT in vitro cytotoxicity, MCF-7; format: cell-based, human; conditions: for IC50: Homo sapiens, MCF7, MTT, mean ± SD of triplicate; for SI (Selectivity Index) MCF-7: IC50 of WI-38 / IC50 of MCF-7
[6] = biological target: HDAC1 (Homo sapiens, UniProt Q13547); experiment: In vitro enzyme inhibition, HDAC1; format: biochemical; conditions: mean ± SD of triplicate; read-out: In Vitro Protein Kinase Inhibition IC50 HDAC1
[7] = biological target: Her2 (Homo sapiens, UniProt P04626); experiment: In vitro protein kinase inhibition, Her2
[8] = biological target: CDK2 (Homo sapiens, UniProt P24941); experiment: In vitro protein kinase inhibition, CDK2
[9] = biological target: VEGFR2 (Homo sapiens, UniProt P35968); experiment: In vitro protein kinase inhibition, VEGFR2; format: biochemical; conditions: mean ± SD of triplicate
Text: […]. […] […].

[10] = biological target: T1, AURKC (Homo sapiens, UniProt Q9UQB9); experiment: In vitro protein kinase inhibition, AURKC
T1 sequence (Q9UQB9 1-309): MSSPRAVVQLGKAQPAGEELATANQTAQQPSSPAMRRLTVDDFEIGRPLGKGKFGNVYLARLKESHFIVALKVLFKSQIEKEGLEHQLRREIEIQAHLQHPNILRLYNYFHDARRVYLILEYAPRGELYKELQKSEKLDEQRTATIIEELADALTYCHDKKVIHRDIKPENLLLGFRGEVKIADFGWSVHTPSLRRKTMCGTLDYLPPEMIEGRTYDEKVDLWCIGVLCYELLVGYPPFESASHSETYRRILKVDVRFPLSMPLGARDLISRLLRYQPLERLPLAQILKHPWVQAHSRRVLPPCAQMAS

[11] = biological target: mTOR (Homo sapiens, UniProt P42345); experiment: In vitro enzyme inhibition, mTOR
[12] = biological target: EGFR (Homo sapiens, UniProt P00533); experiment: In vitro protein kinase inhibition, EGFR
[13] = system: Bax; experiment: Apoptotic protein level by ELISA, Bax; format: cell-based, human; conditions: HepG2 cells
Procedure: (§1) To further elucidate the mechanism by which compound 6i induces cell death, the expression levels of key apoptotic proteins were assessed in the HepG2 cell line. […] Specifically, the levels of the pro-apoptotic proteins caspase-3 and Bax were markedly higher in the compound 6i-treated group compared with the control. […] Additional studies are warranted to elucidate the detailed molecular mechanisms underlying the apoptosis-inducing effects of compound 6i and to assess its therapeutic potential in relevant in vivo models.
(§2) Apoptotic protein levels for compound 6i were determined using an ELISA technique for caspase-3, BAX, and Bcl-2, applying a previously reported method.

[14] = system: Bcl-2; experiment: Apoptotic protein level by ELISA, Bcl-2; format: cell-based, human; conditions: HepG2 cells, ELISA; control 15.668 ± 0.53; mean ± SD of triplicate
[15] = system: caspase-3; experiment: Apoptotic protein level by ELISA, caspase-3; format: cell-based, human; conditions: HepG2 cells
Procedure: as §1, §2

Chain of Her2 (P04626 23-1255): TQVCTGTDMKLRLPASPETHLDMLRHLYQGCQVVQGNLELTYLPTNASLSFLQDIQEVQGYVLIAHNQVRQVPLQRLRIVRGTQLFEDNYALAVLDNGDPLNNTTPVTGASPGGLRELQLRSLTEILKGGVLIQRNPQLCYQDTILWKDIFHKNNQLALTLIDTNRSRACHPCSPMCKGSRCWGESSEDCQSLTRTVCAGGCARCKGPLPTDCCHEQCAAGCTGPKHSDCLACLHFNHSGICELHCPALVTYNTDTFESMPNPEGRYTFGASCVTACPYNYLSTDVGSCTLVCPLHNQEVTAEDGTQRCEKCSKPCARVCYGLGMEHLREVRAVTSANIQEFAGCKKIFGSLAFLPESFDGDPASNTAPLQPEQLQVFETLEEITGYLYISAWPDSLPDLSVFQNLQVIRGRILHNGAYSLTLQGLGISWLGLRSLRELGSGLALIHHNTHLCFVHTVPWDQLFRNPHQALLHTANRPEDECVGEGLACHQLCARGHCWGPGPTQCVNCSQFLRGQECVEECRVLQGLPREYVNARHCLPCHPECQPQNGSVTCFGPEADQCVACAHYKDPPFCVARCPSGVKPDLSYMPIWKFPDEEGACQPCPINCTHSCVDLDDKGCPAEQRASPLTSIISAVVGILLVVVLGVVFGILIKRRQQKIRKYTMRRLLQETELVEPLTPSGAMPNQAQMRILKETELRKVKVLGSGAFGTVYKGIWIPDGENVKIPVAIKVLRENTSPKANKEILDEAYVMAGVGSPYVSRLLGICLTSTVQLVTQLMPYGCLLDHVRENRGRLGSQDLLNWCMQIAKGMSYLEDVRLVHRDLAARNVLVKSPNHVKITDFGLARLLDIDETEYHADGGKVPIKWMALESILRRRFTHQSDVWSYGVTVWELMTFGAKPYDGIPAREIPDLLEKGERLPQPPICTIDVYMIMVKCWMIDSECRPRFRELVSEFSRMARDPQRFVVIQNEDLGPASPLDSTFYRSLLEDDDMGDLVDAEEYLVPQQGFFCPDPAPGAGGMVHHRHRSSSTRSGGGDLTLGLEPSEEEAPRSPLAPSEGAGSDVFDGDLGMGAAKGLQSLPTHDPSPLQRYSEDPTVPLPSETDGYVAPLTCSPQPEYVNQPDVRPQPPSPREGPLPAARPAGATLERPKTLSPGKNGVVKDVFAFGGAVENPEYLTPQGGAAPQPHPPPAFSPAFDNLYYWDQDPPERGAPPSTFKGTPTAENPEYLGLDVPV
Chain of VEGFR2 (P35968 20-1356): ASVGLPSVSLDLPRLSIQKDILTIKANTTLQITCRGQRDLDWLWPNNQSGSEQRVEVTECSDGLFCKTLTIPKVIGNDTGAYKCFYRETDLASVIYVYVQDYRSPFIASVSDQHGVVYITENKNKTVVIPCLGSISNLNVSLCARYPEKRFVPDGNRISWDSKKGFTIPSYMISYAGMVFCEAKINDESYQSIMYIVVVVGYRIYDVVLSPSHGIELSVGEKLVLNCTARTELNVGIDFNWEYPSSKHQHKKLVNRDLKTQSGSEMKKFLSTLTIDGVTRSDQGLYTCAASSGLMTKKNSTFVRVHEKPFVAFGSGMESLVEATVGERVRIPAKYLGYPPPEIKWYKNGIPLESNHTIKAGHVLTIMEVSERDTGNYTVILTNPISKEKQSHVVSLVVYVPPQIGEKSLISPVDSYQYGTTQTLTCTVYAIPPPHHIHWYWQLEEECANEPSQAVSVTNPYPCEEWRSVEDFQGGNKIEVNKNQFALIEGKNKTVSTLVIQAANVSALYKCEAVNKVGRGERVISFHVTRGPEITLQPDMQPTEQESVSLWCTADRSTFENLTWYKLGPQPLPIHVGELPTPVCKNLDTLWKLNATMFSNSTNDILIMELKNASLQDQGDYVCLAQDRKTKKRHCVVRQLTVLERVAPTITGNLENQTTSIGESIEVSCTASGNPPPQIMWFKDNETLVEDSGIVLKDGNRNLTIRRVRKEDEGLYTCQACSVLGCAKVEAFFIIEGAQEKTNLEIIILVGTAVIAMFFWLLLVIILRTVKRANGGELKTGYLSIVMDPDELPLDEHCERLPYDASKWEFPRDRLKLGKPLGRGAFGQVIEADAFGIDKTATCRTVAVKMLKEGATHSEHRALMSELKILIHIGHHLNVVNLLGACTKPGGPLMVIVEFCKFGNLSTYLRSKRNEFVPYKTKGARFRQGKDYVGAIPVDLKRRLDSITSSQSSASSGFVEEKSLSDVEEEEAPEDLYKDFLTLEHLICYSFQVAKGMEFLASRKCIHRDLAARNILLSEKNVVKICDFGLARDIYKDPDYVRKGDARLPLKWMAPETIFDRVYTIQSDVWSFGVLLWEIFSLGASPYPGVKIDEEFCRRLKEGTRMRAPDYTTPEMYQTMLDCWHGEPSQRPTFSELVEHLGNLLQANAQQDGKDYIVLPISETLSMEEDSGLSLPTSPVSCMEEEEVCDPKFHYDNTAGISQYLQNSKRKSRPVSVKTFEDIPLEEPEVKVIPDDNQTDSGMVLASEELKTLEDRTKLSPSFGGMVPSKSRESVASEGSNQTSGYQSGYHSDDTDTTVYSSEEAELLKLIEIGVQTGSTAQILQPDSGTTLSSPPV
Chain of EGFR (P00533 25-1210): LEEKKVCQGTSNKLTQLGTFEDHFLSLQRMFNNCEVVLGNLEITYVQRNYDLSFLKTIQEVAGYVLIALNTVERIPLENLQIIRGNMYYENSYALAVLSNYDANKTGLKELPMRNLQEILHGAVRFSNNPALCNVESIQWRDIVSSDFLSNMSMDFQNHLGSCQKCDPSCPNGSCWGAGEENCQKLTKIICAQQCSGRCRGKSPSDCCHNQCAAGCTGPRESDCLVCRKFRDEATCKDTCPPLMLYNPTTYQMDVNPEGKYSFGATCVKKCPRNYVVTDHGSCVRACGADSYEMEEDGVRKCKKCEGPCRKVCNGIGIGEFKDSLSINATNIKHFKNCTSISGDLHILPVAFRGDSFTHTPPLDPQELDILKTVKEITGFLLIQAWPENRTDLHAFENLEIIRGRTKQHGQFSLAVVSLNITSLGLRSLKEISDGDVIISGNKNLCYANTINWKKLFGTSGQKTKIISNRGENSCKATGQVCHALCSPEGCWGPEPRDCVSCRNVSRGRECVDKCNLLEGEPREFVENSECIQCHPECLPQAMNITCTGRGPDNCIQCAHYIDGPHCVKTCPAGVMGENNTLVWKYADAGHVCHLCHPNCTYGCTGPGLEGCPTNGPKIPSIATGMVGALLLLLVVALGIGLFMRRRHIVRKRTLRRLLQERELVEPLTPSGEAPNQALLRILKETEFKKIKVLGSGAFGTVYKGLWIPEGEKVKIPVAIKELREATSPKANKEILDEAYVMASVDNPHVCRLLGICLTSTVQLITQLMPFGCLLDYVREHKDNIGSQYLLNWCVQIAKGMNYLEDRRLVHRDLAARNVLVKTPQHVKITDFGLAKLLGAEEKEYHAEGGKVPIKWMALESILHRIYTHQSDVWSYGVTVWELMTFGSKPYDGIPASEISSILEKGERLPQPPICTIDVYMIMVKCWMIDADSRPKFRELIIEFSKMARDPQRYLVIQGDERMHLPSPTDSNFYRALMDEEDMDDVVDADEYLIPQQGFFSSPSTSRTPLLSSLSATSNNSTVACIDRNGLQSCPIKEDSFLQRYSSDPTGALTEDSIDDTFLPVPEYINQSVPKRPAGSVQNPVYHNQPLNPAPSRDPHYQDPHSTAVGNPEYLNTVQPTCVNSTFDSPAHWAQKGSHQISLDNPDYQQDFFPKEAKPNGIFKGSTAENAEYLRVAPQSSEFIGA
Chain of HDAC1 (Q13547 whole entry): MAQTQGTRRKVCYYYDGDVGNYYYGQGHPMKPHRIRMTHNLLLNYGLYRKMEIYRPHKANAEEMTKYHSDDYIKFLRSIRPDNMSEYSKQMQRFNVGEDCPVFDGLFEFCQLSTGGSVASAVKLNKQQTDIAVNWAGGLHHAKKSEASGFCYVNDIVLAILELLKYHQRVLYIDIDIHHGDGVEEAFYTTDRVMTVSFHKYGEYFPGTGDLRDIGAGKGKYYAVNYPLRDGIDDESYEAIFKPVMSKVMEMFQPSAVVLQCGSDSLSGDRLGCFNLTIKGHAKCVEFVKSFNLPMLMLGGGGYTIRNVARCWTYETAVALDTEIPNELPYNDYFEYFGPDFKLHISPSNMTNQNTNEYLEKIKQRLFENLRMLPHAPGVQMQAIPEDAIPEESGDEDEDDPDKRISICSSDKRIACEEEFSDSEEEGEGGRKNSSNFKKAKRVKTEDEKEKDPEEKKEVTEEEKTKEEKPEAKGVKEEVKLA

## O=C(N/N=C/c1ccccc1)c1ccc(NCc2nc3ccccc3[nH]2)cc1 [6a, (E)-4-(((1H-benzo[d]imidazol-2-yl)methyl)amino)-N′-benzylidenebenzohydrazide]
[1]
  IC50: 24.6 ± 1.9 µM
  SI (Selectivity Index) HCT-116: 2.95
[2]
  IC50: 31.8 ± 2.2 µM
  SI (Selectivity Index) HepG2: 2.29
other
  melting point: 278 °C
[3]
  IC50: 72.6 ± 4 µM
[4]
  IC50: > 20 µM
[5]
  IC50: 26.3 ± 1.9 µM
  SI (Selectivity Index) MCF-7: 2.76

## O=C(N/N=C/c1ccccc1Br)c1ccc(NCc2nc3ccccc3[nH]2)cc1 [6b, (E)-4-(((1H-benzo[d]imidazol-2-yl)methyl)amino)-N′-(2-bromobenzylidene)benzohydrazide]
[1]
  IC50: 42.9 ± 2.5 µM
  SI (Selectivity Index) HCT-116: 1.96
[2]
  IC50: 26.2 ± 1.9 µM
  SI (Selectivity Index) HepG2: 3.22
other
  melting point: 284 °C
[3]
  IC50: 84.2 ± 4.3 µM
[4]
  IC50: > 20 µM
[5]
  IC50: 31.8 ± 2.1 µM
  SI (Selectivity Index) MCF-7: 2.64

## O=C(N/N=C/c1cccc(Br)c1)c1ccc(NCc2nc3ccccc3[nH]2)cc1 [6c, (E)-4-(((1H-benzo[d]imidazol-2-yl)methyl)amino)-N′-(3-bromobenzylidene)benzohydrazide]
[6]
  IC50: 2.263 ± 7.7e-05 µM
[7]
  IC50: 0.0556 ± 2.3e-05 µM
[8]
  IC50: 0.938 ± 3.9e-05 µM
[1]
  IC50: 10.2 ± 0.8 µM
  SI (Selectivity Index) HCT-116: 4.72
[2]
  IC50: 8.9 ± 0.6 µM
  SI (Selectivity Index) HepG2: 5.41
other
  melting point: 278 °C
[9]
  IC50: 0.6045 ± 2.2e-05 µM
[3]
  IC50: 48.2 ± 2.7 µM
[4]
  IC50: 7.82 to 10.2 µM
[5]
  IC50: 7.82 ± 0.6 µM
  SI (Selectivity Index) MCF-7: 6.16
[10]
  IC50: 0.0944 ± 3.6e-05 µM
[11]
  IC50: 1.461 ± 5e-05 µM
[12]
  IC50: 0.1252 ± 4.1e-05 µM

## O=C(N/N=C/c1ccc(Br)cc1)c1ccc(NCc2nc3ccccc3[nH]2)cc1 [6d, (E)-4-(((1H-benzo[d]imidazol-2-yl)methyl)amino)-N′-(4-bromobenzylidene)benzohydrazide]
[1]
  IC50: 30.3 ± 2.1 µM
  SI (Selectivity Index) HCT-116: 1.79
[2]
  IC50: 17.8 ± 1.3 µM
  SI (Selectivity Index) HepG2: 3.05
other
  melting point: 287 °C
[3]
  IC50: 54.3 ± 3.1 µM
[4]
  IC50: < 30 µM
[5]
  IC50: 25.2 ± 1.8 µM
  SI (Selectivity Index) MCF-7: 2.16

## O=C(N/N=C/c1ccccc1Cl)c1ccc(NCc2nc3ccccc3[nH]2)cc1 [6e, (E)-4-(((1H-benzo[d]imidazol-2-yl)methyl)amino)-N′-(2-chlorobenzylidene)benzohydrazide]
[1]
  IC50: 46.7 ± 2.7 µM
  SI (Selectivity Index) HCT-116: 1.33
[2]
  IC50: 28.8 ± 1.7 µM
  SI (Selectivity Index) HepG2: 2.15
other
  melting point: 289 °C
[3]
  IC50: 61.9 ± 3.5 µM
[4]
  IC50: > 20 µM
[5]
  IC50: 36.2 ± 2.3 µM
  SI (Selectivity Index) MCF-7: 1.71

## O=C(N/N=C/c1cccc(Cl)c1)c1ccc(NCc2nc3ccccc3[nH]2)cc1 [6f, (E)-4-(((1H-benzo[d]imidazol-2-yl)methyl)amino)-N′-(3-chlorobenzylidene)benzohydrazide]
[1]
  IC50: 63.7 ± 3.5 µM
[2]
  IC50: 34.8 ± 2.1 µM
other
  melting point: 271 °C
[3]
  IC50: > 100 µM
[4]
  IC50: > 20 µM
[5]
  IC50: 45.6 ± 2.5 µM

## O=C(N/N=C/c1ccc(Cl)cc1)c1ccc(NCc2nc3ccccc3[nH]2)cc1 [6g, (E)-4-(((1H-benzo[d]imidazol-2-yl)methyl)amino)-N′-(4-chlorobenzylidene)benzohydrazide]
[1]
  IC50: 35.3 ± 2.3 µM
  SI (Selectivity Index) HCT-116: 2.02
[2]
  IC50: 24.9 ± 1.7 µM
  SI (Selectivity Index) HepG2: 2.86
other
  melting point: 290 °C
[3]
  IC50: 71.2 ± 3.5 µM
[4]
  IC50: > 20 µM
[5]
  IC50: 22.5 ± 1.6 µM
  SI (Selectivity Index) MCF-7: 3.16

## O=C(N/N=C/c1ccccc1F)c1ccc(NCc2nc3ccccc3[nH]2)cc1 [6h, (E)-4-(((1H-benzo[d]imidazol-2-yl)methyl)amino)-N′-(2-fluorobenzylidene)benzohydrazide]
[6]
  IC50: 0.1511 ± 5e-06 µM
[7]
  IC50: 0.0232 ± 1e-06 µM
[8]
  IC50: 0.284 ± 1.2e-05 µM
[1]
  IC50: 21.5 ± 1.6 µM
  SI (Selectivity Index) HCT-116: 4.33
[2]
  IC50: 12.9 ± 1 µM
  SI (Selectivity Index) HepG2: 7.19
other
  melting point: 289 °C
[9]
  IC50: 0.1945 ± 7e-06 µM
[3]
  IC50: 93 ± 4.6 µM
[4]
  IC50: < 30 µM
[5]
  IC50: 16.3 ± 1.2 µM
  SI (Selectivity Index) MCF-7: 5.70
[10]
  IC50: 0.011 ± 4e-06 µM
[11]
  IC50: 0.413 ± 1.4e-05 µM
[12]
  IC50: 0.0732 ± 4e-06 µM

## O=C(N/N=C/c1ccc(F)cc1)c1ccc(NCc2nc3ccccc3[nH]2)cc1 [6j, (E)-4-(((1H-benzo[d]imidazol-2-yl)methyl)amino)-N′-(4-fluorobenzylidene)benzohydrazide]
[6]
  IC50: 0.4733 ± 1.6e-05 µM
[7]
  IC50: 0.2047 ± 9e-06 µM
[8]
  IC50: 1.448 ± 6.2e-05 µM
[1]
  IC50: 18.7 ± 1.4 µM
  SI (Selectivity Index) HCT-116: 2.08
[2]
  IC50: 14 ± 1.2 µM
  SI (Selectivity Index) HepG2: 2.78
other
  melting point: 291 °C
[9]
  IC50: 0.3072 ± 1.1e-05 µM
[3]
  IC50: 39 ± 2.3 µM
[4]
  IC50: < 30 µM
[5]
  IC50: 8.31 ± 0.7 µM
  SI (Selectivity Index) MCF-7: 4.70
[10]
  IC50: 0.5894 ± 2.2e-05 µM
[11]
  IC50: 1.305 ± 4.4e-05 µM
[12]
  IC50: 0.1664 ± 8e-06 µM

## O=C(N/N=C/c1ccc(Cl)cc1Cl)c1ccc(NCc2nc3ccccc3[nH]2)cc1 [6k, (E)-4-(((1H-benzo[d]imidazol-2-yl)methyl)amino)-N′-(2,4-dichlorobenzylidene)benzohydrazide]
[1]
  IC50: 67.8 ± 3.8 µM
[2]
  IC50: 44.8 ± 2.4 µM
other
  melting point: 294 °C
[3]
  IC50: > 100 µM
[4]
  IC50: > 20 µM
[5]
  IC50: 48.6 ± 2.7 µM

## O=C(N/N=C/c1cc(F)ccc1F)c1ccc(NCc2nc3ccccc3[nH]2)cc1 [6l, (E)-4-(((1H-benzo[d]imidazol-2-yl)methyl)amino)-N′-(2,5-difluorobenzylidene)benzohydrazide]
[1]
  IC50: 39.8 ± 2.2 µM
  SI (Selectivity Index) HCT-116: 1.95
[2]
  IC50: 20 ± 1.5 µM
  SI (Selectivity Index) HepG2: 3.88
other
  melting point: 160 °C
[3]
  IC50: 77.6 ± 4.1 µM
[4]
  IC50: > 20 µM
[5]
  IC50: 29.8 ± 2 µM
  SI (Selectivity Index) MCF-7: 2.60

## CN[C@@H]1C[C@H]2O[C@@](C)([C@@H]1OC)n1c3ccccc3c3c4c(c5c6ccccc6n2c5c31)C(=O)NC4 [Saurosporine, staurosporine, reference compound]
[13]; ELISA, control 71.075 ± 2.762, mean ± SD of triplicate
  Protein Expression Bax: 386.743 ± 15.03 pg/mL
[13]; relative to control (1)
  Protein Expression Bax (Folds): 5.44 Folds
[14]
  Protein Expression Bcl-2: 3.336 ± 0.11 pg/mL
[15]; ELISA, control 99.904 ± 3.88, mean ± SD of triplicate
  Protein Expression Caspase-3: 541.162 ± 21.02 pg/mL
[15]; relative to control (1)
  Protein Expression Caspase-3 (Folds): 5.4 Folds

## CCN(CC)CCNC(=O)c1c(C)[nH]c(/C=C2\C(=O)Nc3ccc(F)cc32)c1C [Sunitinib, reference compound]
[1]
  IC50: 17.9 ± 1.3 µM
[2]
  IC50: 8.38 ± 0.5 µM
[3]
  IC50: 55.6 ± 3.3 µM
[5]
  IC50: 24.1 ± 2 µM
